According to patent US20040053847A1, “Diastereomeric peptitdes and pharmaceutical compositions comprising them” (priority 2000, published 2004):
≈ marks a conversion by molar mass, not a printed value. Each block holds one compound with its values, some of them ahead of it. Square brackets hold non-standard residues; d marks the D form. Peptide text beside a SMILES is read from it.

Columns and labels:
[1] = system: Aspergillus niger ATCC 9642; assay type: cell-based; details: ATCC 9642
Protocol: (§1) The antifungal activity of the diastereomers was examined in sterile 96-well plates (Nunc F96 microtiter plates) in a final volume of 200 μL as follows: 100 μl of a suspension containing fungi at concentration of 1×10^4 Colony-Forming Units (CFU)/ml in culture medium (RPMI 1640, 0.165 M MOPS pH 7.0, with L-glutamine, without NaHCO3) was added to 100 μl of water containing the peptide in serial 2-fold dilutions in water. The fungi were incubated in the presence of the diastereomeric peptides for 24-48 h at 35° C. in a Binder KB115 incubator under agitation. Growth inhibition was determined by measuring the absorbance at 620 nm with a Microplate autoreader E1309 (Bio-tek Instruments). Antifungal activity is expressed as the minimal inhibitory concentration (MIC), the concentration at which 100% inhibition of growth was observed after the incubation time mentioned above. The fungi used were: Aspergillus niger ATCC 9642, Candida albicans ATCC 10231 and Cryptococcus neoformans ATCC 66031.

[2] = system: Candida albicans ATCC 10231; assay type: cell-based; details: ATCC 10231
Protocol: as §1

[3] = system: Cryptococcus neoformans ATCC 66031; assay type: cell-based
Protocol: as §1

[4] = Cell selectivity, Trypan blue cell viability, LC50; assay type: cell-based, mouse; details: mouse, NIH-3T3 fibroblasts; 50% cell mortality after 24 h incubation, medium without serum; read-out: Lethal Concentration (LC50), NIH-3T3 fibroblasts
A549 lung carcinoma = assay type: cell-based, human; details: 24 h
Protocol: (§2) Aliquots of 100 μl of tumor cell suspension (about 2.5-5×10^3/well) were placed in 96-well microtiter plates in an atmosphere of 5% CO2 at 37° C. […] At the end of incubation, 20 μl of AlamarBlue 75% reagent was added to each well for another 6-hour incubation before detection of cell viability by fluorescence intensity. Fluorescence intensity was measured using a Spectraflour Plus plate reader with excitation at 530 nm and emission at 590 nm. The assays were used to detect changes in cell proliferation based on the ability of viable cells to cause AlamarBlue to change from its oxidized (non-fluorescent, blue) to a reduced (fluorescent, red) form. With the results obtained from the AlamarBlue reaction, cell proliferation can be quantified and metabolic activity of viable cells can be examined.

[5] = system: HT-29 colon adenocarcinoma; assay type: cell-based, human; details: 24 h
Protocol: as §2

[6] = system: MCF-7 breast adenocarcinoma; assay type: cell-based, human; details: 24 h
Protocol: as §2

[7] = system: PC-3 prostate adenocarcinoma; assay type: cell-based, human; details: 24 h
Protocol: as §2

[8] = system: SK-MEL- (ATCC HTB-70) malignant melanoma; assay type: cell-based, human; details: 24 h
Protocol: as §2

human breast MCF-7 cells = assay: Xenograft model of human breast MCF-7 cells in SCID mice; assay type: in vivo
Protocol: The in-vivo anticancer assay was conducted on SCID (Severe Combined Immune Deficiency) mice using the xenograft model of human breast MCF-7 cells. Groups of 6 SCID female mice weighing 18-20 g (6-week old), bred in an animal isolator (IVC racks under specific pathogen-free (SPF) conditions at 24±1° C., were used. Viable human breast carcinoma MCF-7 cells (ATCC HTB-22−1×10^7 cells in 0.2 ml of PBS) were injected subcutaneously (s.c.) into the dorsal side of SCID mice. 50 μg/mouse of estradiol benzoate was injected s.c. weekly as a supplement for 4 weeks. […] Mitomycin at a dose of 2 mg/kg was administered intraperitoneally (IP) twice a week for 5 doses. The tumor size, body weight and the signs of overt animal toxicity after each treatment were recorded and observed. At the end of the experiment, hematological analysis was carried out.

[9] = system: B16 F10 mouse melanoma cell line; assay: In vitro anticancer activity, Trypan blue cell viability, LC50; details: 50% cell mortality after 24 h incubation, medium without serum
Protocol: The anticancer activity of the diastereomers 1, 2, 8, 9 and 10 was examined against B16 F10 mouse melanoma cell line. Melanoma cells were grown in RPMI-1640 medium supplemented with 10% fetal calf serum and antibiotics, at 37° C., in humidified atmosphere at 5% CO2 and 95% air. In addition, the cell-selectivity of the diastereomeric peptides was studied by examining their effect on NIH-3T3 normal fibroblasts cell line. NIH-3T3 mouse fibroblasts cells were grown in DMEM medium supplemented with 10% bovine calf serum and antibiotics under the same conditions as described above for B16 F10 mouse melanoma cells. Melanoma cells (2×10^5 cells ml^−1) or NIH-3T3 cells (2.5×10^5 cells ml^−1) were seeded in tissue culture plates (3.5 cm). After 48 h, cells were washed thrice with the corresponding medium. Then the cells were incubated at 37° C. in medium (without serum and antibiotics) in the presence of the tested diastereomeric peptides dissolved in PBS, at different concentrations. […] Following 24 h of incubation, the cells were harvested with trypsin (0.25%)-EDTA (0.05%) and centrifuiged for 10 min at 270×g. The precipitated cells were suspended in the corresponding medium and counted in a hemocytometer (Neubauer). Cell viability was determined by Trypan blue dye exclusion.

[10] = Hematology analysis on Day 25, MEAN ± SEM
[11] = hematological analysis at the end of the assay
[12] = peptide 9 3 mg/kg IV, mitomycin 2 mg/kg IP

SMILES: CC(C)C[C@H](NC(=O)CN)C(=O)N[C@H](CC(C)C)C(=O)N[C@@H](CC(C)C)C(=O)N[C@@H](CCCNC(=N)N)C(=O)N[C@H](CC(C)C)C(=O)N[C@@H](CC(C)C)C(=O)N[C@H](CCCCN)C(=O)N[C@H](CCCCN)C(=O)N[C@@H](CC(C)C)C(=O)N[C@@H](CC(C)C)C(=O)N[C@@H](CCCNC(=N)N)C(=O)N[C@H](CC(C)C)C(=O)N[C@@H](CC(C)C)C(=O)N[C@@H](CCCCN)C(=O)N[C@@H](CCCCN)C(N)=O [Peptide 5, [D]-L^3,6,13,K^8,9-GK4R2L9] (H-GL[dL]LR[dL]L[dK][dK]LLR[dL]LKK-NH2; N-terminus assumed)
MIC, A. niger ATCC 9642 [1]: 50 µg/mL (≈ 26.1 µM)
MIC, C. albicans ATCC 10231 [2]: 50 µg/mL (≈ 26.1 µM)
MIC, C. neoformans ATCC 66031 [3]: 3 µg/mL (≈ 1.56 µM)

SMILES: CC(C)C[C@H](NC(=O)[C@H](CC(C)C)NC(=O)[C@@H](CCCCN)NC(=O)[C@@H](CCCCN)NC(=O)[C@H](CC(C)C)NC(=O)[C@@H](CC(C)C)NC(=O)[C@H](CCCCN)NC(=O)[C@H](CC(C)C)NC(=O)[C@@H](CC(C)C)NC(=O)[C@H](CC(C)C)NC(=O)[C@@H](N)CCCCN)C(=O)N[C@@H](CCCCN)C(=O)N[C@H](CC(C)C)C(=O)N[C@@H](CC(C)C)C(=O)N[C@@H](CCCCN)C(N)=O [Peptide 10, [D]-L^3,6,13,K^8,9,13-K6L9] (H-KL[dL]LK[dL]L[dK][dK]LLK[dL]LK-NH2; N-terminus assumed)
CC50 at 24 h [4]: 140 µg/mL (≈ 77.6 µM)
IC50 (A549 lung carcinoma): 2.4 µM
IC50 [5]: 15 µM
IC50 [6]: 3.6 µM
IC50 [7]: 8.9 µM
IC50 [8]: 2.6 µM

SMILES: CO[C@@]12[C@H](COC(N)=O)C3=C(C(=O)C(C)=C(N)C3=O)N1C[C@@H]1N[C@@H]12 [Mitomycin C, mitomycin C]
PLT (human breast MCF-7 cells; [10]): 396000 µL⁻¹
RBC (human breast MCF-7 cells; [10]): 10.55 ± 0.37 × 10^6/μl
WBC (human breast MCF-7 cells; [10]): 670 µL⁻¹
Reduction of RBC (human breast MCF-7 cells; [11]): significant reduction
Reduction of WBC and platelets (human breast MCF-7 cells; [11]): significant reduction
Effect on tumor growth (FIG. 1) (human breast MCF-7 cells; peptide 9 3 mg/kg IV twice a week, 6 doses, mitomycin 2 mg/kg IP twice a week, 5 doses): more potent than peptide 9
Body weight and condition of animals (FIG. 2) (human breast MCF-7 cells; [12]): signs of weakness and loss of weight
Side effects in treated animals (human breast MCF-7 cells; [12]): severe side effects throughout the assay period

SMILES: CC(C)C[C@H](NC(=O)CN)C(=O)N[C@H](CC(C)C)C(=O)N[C@@H](CCCCN)C(=O)N[C@@H](CC(C)C)C(=O)N[C@@H](CC(C)C)C(=O)N[C@H](CCCCN)C(=O)N[C@H](CCCCN)C(=O)N[C@@H](CC(C)C)C(=O)N[C@H](CC(C)C)C(=O)N[C@@H](CCCCN)C(=O)N[C@@H](CC(C)C)C(=O)N[C@H](CC(C)C)C(=O)N[C@@H](CC(C)C)C(=O)N[C@@H](CCCCN)C(=O)N[C@@H](CCCCN)C(N)=O [Peptide 8, [D]-L^3,10,13,K^7,8-GK6L9] (H-GL[dL]KLL[dK][dK]L[dL]KL[dL]LKK-NH2; N-terminus assumed)
MIC, A. niger ATCC 9642 [1]: 30 µg/mL (≈ 16.1 µM)
MIC, C. albicans ATCC 10231 [2]: 30 µg/mL (≈ 16.1 µM)
MIC, C. neoformans ATCC 66031 [3]: 1.5 µg/mL (≈ 0.806 µM)
Lethal Concentration (LC50), B16-F10 melanoma [9]: 9 µg/mL
CC50 at 24 h [4]: 30 µg/mL (≈ 16.1 µM)

Second part, the compound after the results:

MIC, A. niger ATCC 9642 [1]: 180 µg/mL (≈ 99.7 µM)
MIC, C. albicans ATCC 10231 [2]: 50 µg/mL (≈ 27.7 µM)
MIC, C. neoformans ATCC 66031 [3]: 5.6 µg/mL (≈ 3.1 µM)
SMILES: CC(C)C[C@H](NC(=O)[C@H](CC(C)C)NC(=O)[C@@H](CCCCN)NC(=O)[C@H](CC(C)C)NC(=O)[C@H](CC(C)C)NC(=O)[C@H](CCCCN)NC(=O)[C@@H](CCCCN)NC(=O)[C@@H](CC(C)C)NC(=O)[C@H](CC(C)C)NC(=O)[C@@H](CCCCN)NC(=O)[C@H](CCCCN)NC(=O)[C@H](CC(C)C)NC(=O)[C@@H](CC(C)C)NC(=O)[C@H](CCCCN)NC(=O)[C@@H](N)CC(C)C)C(N)=O [Peptide 4, [D]-L^3,8,K^6,9,13-K6L9] (H-LK[dL]LK[dK]L[dL][dK]KLL[dK]LL-NH2; N-terminus assumed)

MIC, A. niger ATCC 9642 [1]: 50 µg/mL (≈ 27.7 µM)
MIC, C. albicans ATCC 10231 [2]: 50 µg/mL (≈ 27.7 µM)
MIC, C. neoformans ATCC 66031 [3]: 2.9 µg/mL (≈ 1.61 µM)
SMILES: CC(C)C[C@H](NC(=O)[C@H](CCCCN)NC(=O)[C@@H](CC(C)C)NC(=O)[C@H](CC(C)C)NC(=O)[C@@H](N)CCCCN)C(=O)N[C@@H](CC(C)C)C(=O)N[C@H](CCCCN)C(=O)N[C@H](CCCCN)C(=O)N[C@@H](CC(C)C)C(=O)N[C@H](CC(C)C)C(=O)N[C@@H](CCCCN)C(=O)N[C@@H](CC(C)C)C(=O)N[C@H](CC(C)C)C(=O)N[C@@H](CC(C)C)C(=O)N[C@@H](CCCCN)C(N)=O [Peptide 7, [D]-L^3,10,13,K^7,8-K6L9] (H-KL[dL]KLL[dK][dK]L[dL]KL[dL]LK-NH2; N-terminus assumed)

MIC, A. niger ATCC 9642 [1]: 90 µg/mL (≈ 49.9 µM)
MIC, C. albicans ATCC 10231 [2]: 40 µg/mL (≈ 22.2 µM)
MIC, C. neoformans ATCC 66031 [3]: 2.8 µg/mL (≈ 1.55 µM)
SMILES: CC(C)C[C@H](NC(=O)[C@H](CC(C)C)NC(=O)[C@@H](CCCCN)NC(=O)[C@H](CC(C)C)NC(=O)[C@H](CC(C)C)NC(=O)[C@H](CCCCN)NC(=O)[C@@H](CCCCN)NC(=O)[C@@H](CC(C)C)NC(=O)[C@H](CC(C)C)NC(=O)[C@H](CCCCN)NC(=O)[C@H](CCCCN)NC(=O)[C@H](CC(C)C)NC(=O)[C@@H](CC(C)C)NC(=O)[C@H](CCCCN)NC(=O)[C@@H](N)CC(C)C)C(N)=O [Peptide 3, [D]-L^3,8,K^9,13-K6L9] (H-LK[dL]LKKL[dL][dK]KLL[dK]LL-NH2; N-terminus assumed)
